Data set [1] deals with M5076 murine reticulosarcoma. The data set is described as follows: Antitumour activity (and toxic deaths) against M5076 murine reticulosarcoma transplanted s.c. in mice. In kind it is in vivo, mouse (C75 B1/6 mice). The note with it: for A.U.C. % inhib / LTS (Long Terms Survivors) / T.C. % (median survival time treated/control × 100) / Tox (number of toxic deaths/total number of mice) / Tumor free (mice tumor free at the end of the experiments) / TDG (Tumor Growth Delay) (1 g) / TOX (number of toxic deaths/total number of mice): days 5, 9, 15; for TDG (Tumor Growth Delay) (1 g): time to reach 1 g tumor weight. As to the method:
Antitumour activity of compound A1 on M5076.
The antitumour activity of A1, described in Example 13, was tested as follows:
All drug solutions were prepared immediately before use. Treatment was administered i.v. in a volume of 10 ml/Kg body weight at days 5,9 and 15.
Anthracyclines were dissolved in sterile water and the concentration was checked spectrophotometrically.
Lyophylized polymers were dissolved in water to give a starting solution of 25 mg anthracycline equivalent/ml according to the reported concentration,further dilutions were performed in water.
M5076 murine reticulosarcoma was obtained by serial i.m. passage and transplanted (5×10^5 cells/mouse) s.c. in C75 B1/6 mice to evaluate the activity on primary tumor.
Tumor growth was assessed by. caliper measurement, and the tumor weight estimated according to Geran etal., see Cancer Chemother. Rep. 3, 1 (1972).
The antitumor activity was determined in time (days) to reach one gramm tumor weight and is reported as tumor growth delay (TGD).
The median increase in survival time (T/C%) was calculated using the following formula: [formula]
Toxicity was evaluated on the basis of body weight reduction and gross finding main of spleen and liver reduction.
Neurotoxicity is determined as number of mice with lack of motor function. […]
The antitumor activity was tested with the same treatment schedule for 4'-epidoxorubicin.HCl and compound A4.

Data set [2] has as its system healthy C57B1F mice. The experiment in a line: Single-dose i.v. toxicity in healthy mice (LD10, LD50, therapeutic index). The note with it: for LD10: Probit Analysis after 3-week recovery. It counts as in vivo, mouse. As to the method:
(§1) Toxicity was evaluated in healthy C57B1F mice, treatment i.v., with single doses of 4'-epidoxorubicin.HCl (13.2-16.15-19-20.6-25.2 and 33.2 mg/kg) and compound A4 (50-63-79-100-120-140 mg/kg)
(§2) For the determination of LD10 and LD= in healthy C57 B1F mice the Probit Analysis' after 3-week recovery was used.
(§3) The therapeutic index was calculated using the following formula: [formula]
(§4) Dose effective 50 is the dose causing 50% of tumor growth reduction.

Test in data set [3]: as above
It counts as in vivo, mouse. The note with it: mouse, in vivo, iv; single dose i.v., healthy C57 B1/F mice, Probit Analysis after 3-week recovery. As to the method:
as §1, §2, §3, §4

Setting [4] is: Table 1, 30.0 mg/kg (anthracycline equivalent) i.v.
Where [5] appears, read: Table 1, 40.0 mg/kg (anthracycline equivalent) i.v.
Setting [6] is: Table 1, 50.0 mg/kg (anthracycline equivalent) i.v.
[7] abbreviates: single dose i.v., healthy C57 B1/F mice.
Setting [8] is: Table 2, 4.0 mg/kg (anthracycline equivalent) i.v.
Setting [9] is: Table 2, 5.0 mg/kg (anthracycline equivalent) i.v.
Where [10] appears, read: Table 2, 6.0 mg/kg (anthracycline equivalent) i.v.

Structures can show the parent of a compound that is named as a salt.

With “Copolymer of 3-methacryloylamino-2hydroxypropane, 3'-N-(methacryloylgly-L-phenlalanyl-L-leucylqlycyl)doxorubicin and N-methacryloylqlycine [A1]”, in data set [1] (setting [4]), the A.U.C. % inhib is 100%, the “LTS (Long Terms Survivors)” value is recorded as 4/10, the “T.C. % (median survival time treated/control × 100)” value was 378% and the “Tox (number of toxic deaths/total number of mice)” value was 0/10. Further, in data set [1] (setting [4]), the “Tumor free (mice tumor free at the end of the experiments)” value (from here on “Tumor free”) is recorded as 3/10 and the “TDG (Tumor Growth Delay) (1 g)” value came to 80 days. Further, in data set [1] (setting [5]), the A.U.C. % inhib was found to be 100%, the “LTS (Long Terms Survivors)” value is given as 6/10, the “T.C. % (median survival time treated/control × 100)” value was greater than 369% and the “Tox (number of toxic deaths/total number of mice)” value is 0/10. Moreover, in data set [1] (setting [5]), the “Tumor free” value is given as 5/10. In data set [1] (setting [6]), the A.U.C. % inhib is 100%, the “LTS (Long Terms Survivors)” value was 7/10, the “T.C. % (median survival time treated/control × 100)” value was greater than 369% and the “Tumor free” value is 7/10. In data set [1] (Table 1, 50.0 mg/kg (anthracycline equivalent) i.v., footnote *Neurotoxicity), the “Tox (number of toxic deaths/total number of mice)” value is 2/10.

With `COc1cccc2c1C(=O)c1c(O)c3c(c(O)c1C2=O)C[C@@](O)(C(=O)CO)C[C@@H]3O[C@H]1C[C@H](N)[C@H](O)[C@H](C)O1` [doxorubicin, reference compound], in data set [1] (Table 1, 7.5 mg/kg i.v.), the A.U.C. % inhib was found to be 90%, the “LTS (Long Terms Survivors)” value is reported as 0/26, the “Tox (number of toxic deaths/total number of mice)” value is reported as 0/26 and the “Tumor free” value is recorded as 0/26. Moreover, the “TDG (Tumor Growth Delay) (1 g)” value in data set [1] (Table 1, 7.5 mg/kg i.v.) is recorded as 35 days. In data set [1] (Table 1, 10.0 mg/kg i.v.), the A.U.C. % inhib came to 100%, the “LTS (Long Terms Survivors)” value is 0/26, the “Tox (number of toxic deaths/total number of mice)” value is 3/26 and the “Tumor free” value is listed as 0/26. For the same compound, the “TDG (Tumor Growth Delay) (1 g)” value in data set [1] (Table 1, 10.0 mg/kg i.v.) worked out at 39 days.

Regarding “Copolymer of 3-methacryloylamino-2-hydroxypropane, 4'-epi-3'-N-(methacryloylglycyl-L-phenylalanyl-L-leuculglycyl)doxorubicin and 1-N-(methacryloylgylcyl)-2-hydrocypropane [A4]”, in data set [1] (Table 3, 10 mg/kg), the A.U.C. % inhib is recorded as 100%, the “T.C. % (median survival time treated/control × 100)” value was determined as 190%, the “TOX (number of toxic deaths/total number of mice)” value was 0/9 and the “TDG (Tumor Growth Delay) (1 g)” value came out at 62 days. Moreover, in data set [1] (Table 3, 20 mg/kg), the A.U.C. % inhib is given as 100%, the “T.C. % (median survival time treated/control × 100)” value is 219%, the “TOX (number of toxic deaths/total number of mice)” value is 0/9 and the “TDG (Tumor Growth Delay) (1 g)” value turned out to be 62 days. In data set [1] (Table 3, 30 mg/kg), the A.U.C. % inhib is 100%, the “T.C. % (median survival time treated/control × 100)” value stood at 229%, the “TOX (number of toxic deaths/total number of mice)” value is given as 0/9 and the “TDG (Tumor Growth Delay) (1 g)” value was 71 days. Besides, the “Activity against early M5076 murine reticulosarcoma compared with free drug” value in data set [1] (versus 4'-epidoxorubicin.HCl, same treatment schedule) is reported as “more active than free drug at all tested doses”. Moreover, the therapeutic index in data set [2] (calculated by formula using dose effective 50 (dose causing 50% of tumor growth reduction)) is recorded as 40. Moreover, the toxicity entry in data set [2] (compared with 4'-epidoxorubicin.HCl) was “low toxicity”. The LD10 in data set [2] (setting [7]) is 128.0 mg/kg. In addition, the “LD50 (extrapolated value)” value in data set [2] (single dose i.v., healthy C57 B1/F mice, Probit Analysis, extrapolated value, 30240 min) is 389 mg/kg.

With “Copolymer of 3-methacryloylamino-2-hyvdroxypropane, 4-demethoxy, 3'-N-(methacrylgylcyl-L-phenylalanyl-L-leucyl glycyl)daunorubicin and N-methacryloylglycine [A3]”, in data set [1] (setting [8]), the A.U.C. % inhib came out at 100%, the “LTS (Long Terms Survivors)” value is 0/10, the “T.C. % (median survival time treated/control × 100)” value is 198% and the “Tox (number of toxic deaths/total number of mice)” value was 0/10. In addition, in data set [1] (setting [8]), the “Tumor free” value is given as 0/10 and the “TDG (Tumor Growth Delay) (1 g)” value stood at 49 days. Also, in data set [1] (setting [9]), the A.U.C. % inhib is listed as 100%, the “LTS (Long Terms Survivors)” value is given as 0/10, the “T.C. % (median survival time treated/control × 100)” value is 205% and the “Tox (number of toxic deaths/total number of mice)” value is listed as 0/10. Further, in data set [1] (setting [9]), the “Tumor free” value is 0/10 and the “TDG (Tumor Growth Delay) (1 g)” value came to 50 days. Besides, in data set [1] (setting [10]), the A.U.C. % inhib is 100%, the “LTS (Long Terms Survivors)” value is on record as 0/9, the “T.C. % (median survival time treated/control × 100)” value stood at 212% and the “Tox (number of toxic deaths/total number of mice)” value is 0/9. Further, in data set [1] (setting [10]), the “Tumor free” value is on record as 0/9 and the “TDG (Tumor Growth Delay) (1 g)” value is listed as 55 days.

For the compound `COc1cccc2c1C(=O)c1c(O)c3c(c(O)c1C2=O)C[C@@](O)(C(=O)CO)C[C@@H]3O[C@H]1C[C@H](N)[C@@H](O)[C@H](C)O1` [4'-epidoxorubicin.HCl, reference compound], in data set [1] (Table 3, 5 mg/kg), the A.U.C. % inhib was 51%, the “T.C. % (median survival time treated/control × 100)” value is reported as 105%, the “TOX (number of toxic deaths/total number of mice)” value is reported as 0/9 and the “TDG (Tumor Growth Delay) (1 g)” value is reported as 22 days. In data set [1] (Table 3, 7.5 mg/kg), the A.U.C. % inhib stood at 90%, the “T.C. % (median survival time treated/control × 100)” value is reported as 124%, the “TOX (number of toxic deaths/total number of mice)” value is on record as 0/9 and the “TDG (Tumor Growth Delay) (1 g)” value turned out to be 34 days. Moreover, in data set [1] (Table 3, 10 mg/kg), the A.U.C. % inhib amounted to 99%, the “T.C. % (median survival time treated/control × 100)” value is 125%, the “TOX (number of toxic deaths/total number of mice)” value is on record as 0/9 and the “TDG (Tumor Growth Delay) (1 g)” value is given as 40 days. In data set [3], this compound registered an LD50 at 504 h of 21.4 mg/kg. The LD10 in data set [2] (setting [7]) is given as 16.4 mg/kg.

Consider `CC(=O)[C@]1(O)Cc2c(O)c3c(c(O)c2[C@@H](O[C@H]2C[C@H](N)[C@H](O)[C@H](C)O2)C1)C(=O)c1ccccc1C3=O` [4-demethoxydaunorubicin, reference compound], for which, in data set [1] (Table 2, 1.0 mg/kg i.v.), the A.U.C. % inhib turned out to be 47%, the “LTS (Long Terms Survivors)” value was 0/9, the “T.C. % (median survival time treated/control × 100)” value worked out at 142% and the “Tox (number of toxic deaths/total number of mice)” value is recorded as 0/9. In data set [1] (Table 2, 1.0 mg/kg i.v.), the “Tumor free” value is 0/9 and the “TDG (Tumor Growth Delay) (1 g)” value amounted to 19 days. In data set [1] (Table 2, 1.5 mg/kg i.v.), the A.U.C. % inhib is given as 80%, the “LTS (Long Terms Survivors)” value was 0/9, the “T.C. % (median survival time treated/control × 100)” value came out at 160% and the “Tox (number of toxic deaths/total number of mice)” value was 0/9. Further, in data set [1] (Table 2, 1.5 mg/kg i.v.), the “Tumor free” value is reported as 0/9 and the “TDG (Tumor Growth Delay) (1 g)” value was 28 days.

The values above are taken from US5571785A, “Biologically active compounds” (Farmitalia Carlo Erba S.r.l, priority 1993, dated 1996).
